{"source": "patent US20080260753A1", "about": "“Mouse Models of Crohn's Disease and a Method to Develop Specific Therapeutics” (priority 2004, published 2008)", "key": {"[1]": {"system": "BMDMs from WT and Nod2^2939iC (m/m) mice", "experiment": "Cytokine secretion by stimulated BMDMs (ELISA, immunoblotting)", "type": "cell-based, mouse", "experimental": "Macrophage culture and treatment. BMDMs were cultured as described (Park et al., Science 297: 2048, 2002). Confluent cultures were treated with different bacterial components including MDP (Bachem), synthetic peptidoglycan-Pam3Cys (InvivoGen), natural gram positive peptidoglycan (from S. aureus, Sigma), LPS (from E. coli, Sigma), and CpG-DNA (TIB MOLBIOL). At the indicated time points the cells or culture supernatants were collected and used to prepare cytoplasmic and nuclear protein extracts or total cellular RNA.\nGene expression analyses. Protein lysates were prepared from tissues and cultured macrophages, separated by SDS-polyacrylamide gel electrophoresis, transferred to Immobilon membranes (Millipore) and analyzed by immunoblotting. Total cellular RNA was extracted using TRIZOL (Invitrogen). cDNA was generated using SuperScript II (Invitrogen) and the amounts of the different mRNAs were measured by real-time PCR using GAPDH mRNA for normalization. Primer sequences are available upon request. Cytokine levels were measured using enzyme linked immunoadsorbent assays (ELISA)."}, "WT and Nod2^2939iC mice": {"system": "WT and Nod2^2939iC mice", "experiment": "DSS colitis with IL-1RA or antibiotic treatment, body weight, survival and histological scoring", "type": "in vivo", "details": "for mortality: 3% DSS for 6 days, by 10 days after DSS exposure", "experimental": "DSS colitis, IL-1RA treatment and histological scoring. Mice (8-12 weeks old) were given DSS (ICN Biomedicals Inc.) in the drinking water for 6 days as indicated and placed on regular water thereafter. When indicated, mice were also treated with neomycin sulfate (1.5 g/L) and metronidazole (1.5 g/L) (both from Sigma) in the drinking water or injected i.p. with either IL-1RA (Kineret®, Amgen Inc.) (100 mg/kg) in PBS or PBS alone once daily throughout the experiment. […] Histological scoring of fixed (10% formaldehyde) and sectioned (paraffin embedded) tissue was performed in a blinded manner. The scores were: 0=normal, 1=moderate mucosal inflammation without ulcer, 2=severe mucosal inflammation with ulcer (<1 mm) or no ulcer, 3=severe mucosal inflammation with ulcer (1-3 mm), 4=severe mucosal inflammation with ulcer (>3 mm)."}}, "data": [{"molecule": "CC(=O)N[C@H]1C(O)O[C@H](CO)[C@@H](O)[C@@H]1O[C@H](C)C(=O)N[C@@H](C)C(=O)N[C@H](CCC(=O)O)C(N)=O", "note": "(mixture of isomers) [MDP, muramyl dipeptide]", "values": [{"measurement": "IL-6 secretion", "setting": "[1]; BMDMs stimulated with MDP", "result": "neither IL-6 nor TNFα were secreted"}, {"measurement": "release of mature IL-1β", "setting": "[1]; Nod2^2939iC macrophages, MDP 1 μg/ml, 24 hrs", "result": "stimulated release of mature IL-1β"}]}, {"molecule": "IL-1RA: IL-1 receptor antagonist (IL-1RA) (Kineret®, Amgen Inc.)", "values": [{"measurement": "Average body weight loss", "setting": "WT and Nod2^2939iC mice; 3% DSS in drinking water for 6 days, IL-1RA 100 mg/kg i.p. once daily from the start of DSS exposure, WT and Nod2^2939iC mice", "result": "improved"}, {"measurement": "differences in weight loss and inflammatory score between the genotypes", "setting": "WT and Nod2^2939iC mice; 3% DSS plus IL-1RA 100 mg/kg/day, WT vs Nod2^2939iC mice", "result": "abolished"}, {"measurement": "histological score", "setting": "WT and Nod2^2939iC mice; 11 days after initiation of 3% DSS, IL-1RA 100 mg/kg/day i.p., WT and Nod2^2939iC mice", "result": "improved"}, {"measurement": "colon histology: inflammation and ulceration compared to DSS alone", "setting": "WT and Nod2^2939iC mice; 11 days after initiation of DSS plus IL-1RA (100 mg/kg/day), WT and Nod2^2939iC mice", "result": "decreased inflammation and ulceration"}]}, {"molecule": "dextran sodium sulfate [DSS]", "values": [{"measurement": "mortality", "setting": "WT and Nod2^2939iC mice; Nod2^2939iC mice (n=16)", "result": 37.5, "unit": "%"}, {"measurement": "mortality", "setting": "WT and Nod2^2939iC mice; WT mice (n=19)", "result": 0, "unit": "%"}, {"measurement": "time to death after DSS administration", "setting": "WT and Nod2^2939iC mice; 6% DSS without oral antibiotics, WT and Nod2^2939iC mice", "result": "≤ 9", "unit": "days"}]}]}
